Laboratory results taken from PubChem BioAssay (NCI).
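Values below derive from 48-hour exposures of cells grown in 96-well plates, with endpoints linearly interpolated between the two concentrations bracketing the appropriate inhibition level. GI50 is the concentration that inhibits growth by half. TGI is the concentration that stops growth completely.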

Experiments:
Test in all cases: NCI-60 cell line screen, 48 h
NCI-H460 lung = test system: NCI-H460 lung
TK-10 renal = test system: TK-10 renal
MOLT-4 leukemia = test system: MOLT-4 leukemia
M14 melanoma = test system: M14 melanoma
SNB-75 CNS = test system: SNB-75 CNS
OVCAR-5 ovarian = test system: OVCAR-5 ovarian
K-562 leukemia = test system: K-562 leukemia
786-0 renal = test system: 786-0 renal
SK-MEL-5 melanoma = test system: SK-MEL-5 melanoma
HOP-92 NSCLC = test system: HOP-92 NSCLC
HS 578T breast = test system: HS 578T breast
UACC-62 melanoma = test system: UACC-62 melanoma
EKVX NSCLC = test system: EKVX NSCLC
UO-31 renal = test system: UO-31 renal
SF-268 CNS = test system: SF-268 CNS
A498 renal = test system: A498 renal
SR leukemia = test system: SR leukemia
PC-3 prostate = test system: PC-3 prostate
SK-MEL-28 melanoma = test system: SK-MEL-28 melanoma
HCT-116 colon = test system: HCT-116 colon
MDA-MB-231 breast = test system: MDA-MB-231 breast
A549 NSCLC = test system: A549 NSCLC
SK-MEL-2 melanoma = test system: SK-MEL-2 melanoma
UACC-257 melanoma = test system: UACC-257 melanoma
KM12 colon = test system: KM12 colon
HCC-2998 colon = test system: HCC-2998 colon
SN12C renal = test system: SN12C renal
COLO 205 colon = test system: COLO 205 colon
OVCAR-3 ovarian = test system: OVCAR-3 ovarian
NCI-H226 lung = test system: NCI-H226 lung
HCT-15 colon = test system: HCT-15 colon
IGROV1 ovarian = test system: IGROV1 ovarian
NCI/ADR-RES ovarian = test system: NCI/ADR-RES ovarian
LOX IMVI melanoma = test system: LOX IMVI melanoma
CAKI-1 renal = test system: CAKI-1 renal
CCRF-CEM leukemia = test system: CCRF-CEM leukemia
RXF 393 renal = test system: RXF 393 renal
MDA-MB-435 = test system: MDA-MB-435
MALME-3M melanoma = test system: MALME-3M melanoma
DU-145 prostate = test system: DU-145 prostate
SW-620 colon = test system: SW-620 colon
SF-539 CNS = test system: SF-539 CNS
RPMI-8226 leukemia = test system: RPMI-8226 leukemia
OVCAR-4 ovarian = test system: OVCAR-4 ovarian
ACHN renal = test system: ACHN renal
OVCAR-8 ovarian = test system: OVCAR-8 ovarian
MCF7 breast = test system: MCF7 breast
NCI-H23 lung = test system: NCI-H23 lung
SNB-19 CNS = test system: SNB-19 CNS
U251 CNS = test system: U251 CNS
HL-60(TB) leukemia = test system: HL-60(TB) leukemia
SK-OV-3 ovarian = test system: SK-OV-3 ovarian
HT29 colon = test system: HT29 colon
NCI-H522 lung = test system: NCI-H522 lung
SF-295 CNS = test system: SF-295 CNS
HOP-62 NSCLC = test system: HOP-62 NSCLC
T-47D breast = test system: T-47D breast

Cc1cc(C#Cc2ccccc2)ccc1-n1c(/C=C/c2ccc(O)cc2)nc2ccccc2c1=O
GI50 (NCI-H460 lung): 2.22 µM | TGI (NCI-H460 lung): 6.18 µM | GI50 (TK-10 renal): 2.62 µM | TGI (TK-10 renal): 32.8 µM | GI50 (MOLT-4 leukemia): 2.36 µM | TGI (MOLT-4 leukemia): 8.33 µM | GI50 (M14 melanoma): 3.56 µM | TGI (M14 melanoma): 15.1 µM | GI50 (SNB-75 CNS): 3.66 µM | TGI (SNB-75 CNS): 38.4 µM | GI50 (OVCAR-5 ovarian): 4.59 µM | TGI (OVCAR-5 ovarian): 94.7 µM | GI50 (K-562 leukemia): 2 µM | TGI (K-562 leukemia): > 100 µM | GI50 (786-0 renal): 3.65 µM | TGI (786-0 renal): 28.7 µM | GI50 (SK-MEL-5 melanoma): 1.77 µM | TGI (SK-MEL-5 melanoma): 3.83 µM | GI50 (HOP-92 NSCLC): 2.5 µM | TGI (HOP-92 NSCLC): 7.26 µM | GI50 (HS 578T breast): 2.48 µM | TGI (HS 578T breast): 49.5 µM | GI50 (UACC-62 melanoma): 3.48 µM | TGI (UACC-62 melanoma): 21.7 µM | GI50 (EKVX NSCLC): 2.43 µM | TGI (EKVX NSCLC): > 100 µM | GI50 (UO-31 renal): 2.06 µM | TGI (UO-31 renal): 7.65 µM | GI50 (SF-268 CNS): 4.56 µM | TGI (SF-268 CNS): > 100 µM | GI50 (A498 renal): 1.56 µM | TGI (A498 renal): 7.71 µM | GI50 (SR leukemia): 2.45 µM | TGI (SR leukemia): 29 µM | GI50 (PC-3 prostate): 3.24 µM | TGI (PC-3 prostate): > 100 µM | GI50 (SK-MEL-28 melanoma): 4.54 µM | TGI (SK-MEL-28 melanoma): > 100 µM | GI50 (HCT-116 colon): 2.66 µM | TGI (HCT-116 colon): 11 µM | GI50 (MDA-MB-231 breast): 3.89 µM | TGI (MDA-MB-231 breast): 29.5 µM | GI50 (A549 NSCLC): 3.14 µM | TGI (A549 NSCLC): > 100 µM | GI50 (SK-MEL-2 melanoma): 1.93 µM | TGI (SK-MEL-2 melanoma): 5.76 µM | GI50 (UACC-257 melanoma): 4.18 µM | TGI (UACC-257 melanoma): 56.3 µM | GI50 (KM12 colon): 3.24 µM | TGI (KM12 colon): 12.6 µM | GI50 (HCC-2998 colon): 2.35 µM | TGI (HCC-2998 colon): 7.35 µM | GI50 (SN12C renal): 3.77 µM | TGI (SN12C renal): 38.3 µM | GI50 (COLO 205 colon): 1.99 µM | TGI (COLO 205 colon): 4.75 µM | GI50 (OVCAR-3 ovarian): 3.6 µM | TGI (OVCAR-3 ovarian): 25.7 µM | GI50 (NCI-H226 lung): 3.99 µM | TGI (NCI-H226 lung): > 100 µM | GI50 (HCT-15 colon): 2.5 µM | TGI (HCT-15 colon): 19.2 µM | GI50 (IGROV1 ovarian): 20.6 µM | TGI (IGROV1 ovarian): > 100 µM | GI50 (NCI/ADR-RES ovarian): 3.09 µM | TGI (NCI/ADR-RES ovarian): 42 µM | GI50 (LOX IMVI melanoma): 2.78 µM | TGI (LOX IMVI melanoma): 10.8 µM | GI50 (CAKI-1 renal): 3.3 µM | TGI (CAKI-1 renal): 36.5 µM | GI50 (CCRF-CEM leukemia): 3.26 µM | TGI (CCRF-CEM leukemia): > 100 µM | GI50 (RXF 393 renal): 3.51 µM | TGI (RXF 393 renal): > 100 µM | GI50 (MDA-MB-435): 2.82 µM | TGI (MDA-MB-435): 22.8 µM | GI50 (MALME-3M melanoma): 2.12 µM | TGI (MALME-3M melanoma): 7.31 µM | GI50 (DU-145 prostate): 4.87 µM | TGI (DU-145 prostate): > 100 µM | GI50 (SW-620 colon): 4.08 µM | TGI (SW-620 colon): > 100 µM | GI50 (SF-539 CNS): 5.65 µM | TGI (SF-539 CNS): > 100 µM | GI50 (RPMI-8226 leukemia): 2.33 µM | TGI (RPMI-8226 leukemia): > 100 µM | GI50 (OVCAR-4 ovarian): 3.17 µM | TGI (OVCAR-4 ovarian): 22.7 µM | GI50 (ACHN renal): 2.46 µM | TGI (ACHN renal): 8.52 µM | GI50 (OVCAR-8 ovarian): 3.98 µM | TGI (OVCAR-8 ovarian): > 100 µM | GI50 (MCF7 breast): 2.72 µM | TGI (MCF7 breast): 11 µM | GI50 (NCI-H23 lung): 3.62 µM | TGI (NCI-H23 lung): > 100 µM | GI50 (SNB-19 CNS): 6.91 µM | TGI (SNB-19 CNS): > 100 µM | GI50 (U251 CNS): 4.33 µM | TGI (U251 CNS): > 100 µM | GI50 (HL-60(TB) leukemia): 1.66 µM | TGI (HL-60(TB) leukemia): 4.69 µM | GI50 (SK-OV-3 ovarian): 9.91 µM | TGI (SK-OV-3 ovarian): > 100 µM | GI50 (HT29 colon): 3.33 µM | TGI (HT29 colon): 16.6 µM | GI50 (NCI-H522 lung): 2.26 µM | TGI (NCI-H522 lung): 27.3 µM | GI50 (SF-295 CNS): 2.85 µM | TGI (SF-295 CNS): 13.6 µM | GI50 (HOP-62 NSCLC): 13.1 µM | TGI (HOP-62 NSCLC): > 100 µM | GI50 (T-47D breast): 2.02 µM | TGI (T-47D breast): 8.13 µM

CC(=O)OCCCCCn1cnc(C(N)=O)c1N
GI50 (SNB-75 CNS): 87.1 µM
